Laboratory results: patent US20240158446A1, “CYCLIC COMPOUND HAVING SELECTIVE INHIBITORY ACTION ON KRAS OVER HRAS AND NRAS” (CHUGAI SEIYAKU KABUSHIKI KAISHA, priority 2021, published 2024)

Columns and labels:
[1] = biological target: GDP-bound KRAS wild-type protein (Homo sapiens, UniProt P01116); assay: Binding to KRAS by surface plasmon resonance (SPR), Single Cycle Kinetics; details: SPR, Single Cycle Kinetics, GDP-bound KRAS wild-type protein; read-out: KRAS KD
[2] = biological target: GDP-bound NRAS wild-type protein (Homo sapiens, UniProt P01111); assay: Binding to NRAS by surface plasmon resonance (SPR), Single Cycle Kinetics; details: SPR, GDP-bound NRAS wild-type protein vs GDP-bound KRAS wild-type protein
Sequence of GDP-bound NRAS wild-type protein (P01111 whole entry): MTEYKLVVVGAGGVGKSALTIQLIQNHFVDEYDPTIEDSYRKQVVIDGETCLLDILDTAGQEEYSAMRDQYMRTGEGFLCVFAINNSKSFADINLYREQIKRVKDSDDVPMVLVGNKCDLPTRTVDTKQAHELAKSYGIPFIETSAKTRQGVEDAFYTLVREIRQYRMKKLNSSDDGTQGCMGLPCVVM

[3] = biological target: GDP-bound HRAS wild-type protein (Homo sapiens, UniProt P01112); assay: Binding to HRAS by surface plasmon resonance (SPR), Single Cycle Kinetics; details: SPR, GDP-bound HRAS wild-type protein vs GDP-bound KRAS wild-type protein
Sequence of GDP-bound HRAS wild-type protein (P01112 whole entry): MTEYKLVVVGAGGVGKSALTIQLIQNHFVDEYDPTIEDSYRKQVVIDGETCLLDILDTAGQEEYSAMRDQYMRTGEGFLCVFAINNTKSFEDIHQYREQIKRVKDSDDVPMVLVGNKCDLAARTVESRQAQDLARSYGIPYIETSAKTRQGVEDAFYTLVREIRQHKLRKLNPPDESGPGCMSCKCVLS

Sequence of GDP-bound KRAS wild-type protein (P01116 whole entry): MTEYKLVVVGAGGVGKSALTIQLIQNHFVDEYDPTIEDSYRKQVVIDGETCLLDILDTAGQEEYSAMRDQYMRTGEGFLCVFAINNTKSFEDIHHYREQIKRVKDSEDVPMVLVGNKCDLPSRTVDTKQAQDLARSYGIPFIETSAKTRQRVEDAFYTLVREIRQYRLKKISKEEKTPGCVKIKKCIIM

Kd [1] [pM]	Compound	NRAS/KRAS (ratio of KD value for NRAS to KD value for KRAS) [2]	HRAS/KRAS (ratio of KD value for HRAS to KD value for KRAS) [3]
22	CCO[C@@H]1C[C@H]2C(=O)NC3(CCC3)C(=O)N(C)[C@@H](C3CCCC3)C(=O)N(C)[C@H](C(=O)N(C)C)CC(=O)N(C)[C@@H](CC)C(=O)N[C@@H]([C@@H](C)CC)C(=O)N(C)CC(=O)N(C)[C@H]3C[C@@H](C)CCN(C3=O)[C@@H](Cc3ccc(C(F)(F)F)cc3)C(=O)N(C)CC(=O)N[C@@H](CCc3cc(F)c(C(F)(F)F)c(F)c3)C(=O)N2C1 [PP1020]	C (A compound having a KD ratio of 0.1 or more and less than 3 is denoted as C)	B (a compound having 3 or more and less than 10 is denoted as B)
57	CCO[C@@H]1C[C@H]2C(=O)NC3(CCC3)C(=O)N(C)[C@@H](C3CCCC3)C(=O)N(C)[C@H](C(=O)N(C)C)CC(=O)N(C)[C@@H](CC)C(=O)N[C@@H]([C@@H](C)CC)C(=O)N3CC[C@H]3C(=O)N(C)[C@H]3C[C@@H](C)CCN(C3=O)[C@@H](Cc3ccc(C(F)(F)F)cc3)C(=O)N(C)CC(=O)N[C@@H](CCc3cc(F)c(C(F)(F)F)c(F)c3)C(=O)N2C1 [PP1021]	C (A compound having a KD ratio of 0.1 or more and less than 3 is denoted as C)	B (a compound having 3 or more and less than 10 is denoted as B)
36	CCO[C@@H]1C[C@H]2C(=O)NC3(CCCC3)C(=O)N(C)[C@@H](C3CCCC3)C(=O)N(C)[C@H](C(=O)N(C)C)CC(=O)N(C)[C@@H](CC)C(=O)N[C@@H]([C@@H](C)CC)C(=O)N(C)CC(=O)N(C)[C@H]3C[C@@H](C)CCN(C3=O)[C@@H](Cc3ccc(C(F)(F)F)cc3)C(=O)N(C)CC(=O)N[C@@H](CCc3cc(F)c(C(F)(F)F)c(F)c3)C(=O)N2C1 [PP1022]	C (A compound having a KD ratio of 0.1 or more and less than 3 is denoted as C)	B (a compound having 3 or more and less than 10 is denoted as B)
88	CCO[C@@H]1C[C@H]2C(=O)NC3(CCCC3)C(=O)N(C)[C@@H](C3CCCC3)C(=O)N(C)[C@H](C(=O)N3CCOCC3)CC(=O)N(C)[C@@H](CC(C)C)C(=O)N[C@@H]([C@@H](C)CC)C(=O)N(C)CC(=O)N(C)[C@H]3C[C@@H](C)CCN(C3=O)[C@@H](Cc3ccc(C(F)(F)F)cc3)C(=O)N(C)CC(=O)N[C@@H](CCc3cc(F)c(C(F)(F)F)c(F)c3)C(=O)N2C1 [PP1024]	B (a compound having 3 or more and less than 10 is denoted as B)	B (a compound having 3 or more and less than 10 is denoted as B)
56	CCO[C@@H]1C[C@H]2C(=O)NC3(CCC3)C(=O)N(C)[C@@H](C3CCCC3)C(=O)N(C)[C@H](C(=O)N3CCOCC3)CC(=O)N(C)[C@@H](CC(C)C)C(=O)N[C@@H]([C@@H](C)CC)C(=O)N(C)CC(=O)N(C)[C@H]3C[C@@H](C)CCN(C3=O)[C@@H](Cc3ccc(C(F)(F)F)cc3)C(=O)N(C)CC(=O)N[C@@H](CCc3cc(F)c(C(F)(F)F)c(F)c3)C(=O)N2C1 [PP1025]	C (A compound having a KD ratio of 0.1 or more and less than 3 is denoted as C)	B (a compound having 3 or more and less than 10 is denoted as B)
56	CCO[C@@H]1C[C@H]2C(=O)NC3(CCC3)C(=O)N(C)[C@@H](C3CCCC3)C(=O)N(C)[C@H](C(=O)N3CCOCC3)CC(=O)N(C)[C@@H](CC)C(=O)N[C@@H]([C@@H](C)CC)C(=O)N(C)CC(=O)N(C)[C@H]3C[C@@H](C)CCN(C3=O)[C@@H](Cc3ccc(C(F)(F)F)cc3)C(=O)N(C)CC(=O)N[C@@H](CCc3cc(F)c(C(F)(F)F)c(F)c3)C(=O)N2C1 [PP1027]	C (A compound having a KD ratio of 0.1 or more and less than 3 is denoted as C)	B (a compound having 3 or more and less than 10 is denoted as B)
99	CCO[C@@H]1C[C@H]2C(=O)NC3(CCC3)C(=O)N(C)[C@@H](C3CCCC3)C(=O)N(C)[C@H](C(=O)N3CCOCC3)CC(=O)N(C)[C@@H](CC)C(=O)N[C@@H]([C@@H](C)CC)C(=O)N3CC[C@H]3C(=O)N(C)[C@H]3C[C@@H](C)CCN(C3=O)[C@@H](Cc3ccc(C(F)(F)F)cc3)C(=O)N(C)CC(=O)N[C@@H](CCc3cc(F)c(C(F)(F)F)c(F)c3)C(=O)N2C1 [PP1028]	B (a compound having 3 or more and less than 10 is denoted as B)	B (a compound having 3 or more and less than 10 is denoted as B)
78	CCO[C@@H]1C[C@H]2C(=O)NC3(CCCC3)C(=O)N(C)[C@@H](C3CCCC3)C(=O)N(C)[C@H](C(=O)N3CCOCC3)CC(=O)N(C)[C@@H](CC)C(=O)N[C@@H]([C@@H](C)CC)C(=O)N(C)CC(=O)N(C)[C@H]3C[C@@H](C)CCN(C3=O)[C@@H](Cc3ccc(C(F)(F)F)cc3)C(=O)N(C)CC(=O)N[C@@H](CCc3cc(F)c(C(F)(F)F)c(F)c3)C(=O)N2C1 [PP1029]	C (A compound having a KD ratio of 0.1 or more and less than 3 is denoted as C)	B (a compound having 3 or more and less than 10 is denoted as B)
670	CCO[C@@H]1C[C@H]2C(=O)NC3(CCCC3)C(=O)N(C)[C@@H](C3CCCC3)C(=O)N(C)[C@H](C(=O)N(C)C)CC(=O)N(C)[C@@H](CC(C)C)C(=O)N[C@@H]([C@@H](C)CC)C(=O)N(C)CC(=O)N(C)[C@H]3CC(C)=CCN(C3=O)[C@@H](Cc3ccc(C(F)(F)F)cc3)C(=O)N(C)CC(=O)N[C@@H](CCc3cc(F)c(C(F)(F)F)c(F)c3)C(=O)N2C1 [PP1031]	C (A compound having a KD ratio of 0.1 or more and less than 3 is denoted as C)	C (A compound having a KD ratio of 0.1 or more and less than 3 is denoted as C)
430	CCO[C@@H]1C[C@H]2C(=O)NC3(CCC3)C(=O)N(C)[C@@H](C3CCCC3)C(=O)N(C)[C@H](C(=O)N(C)C)CC(=O)N(C)[C@@H](CC(C)C)C(=O)N[C@@H]([C@@H](C)CC)C(=O)N3CC[C@H]3C(=O)N(C)[C@H]3CC(C)=CCN(C3=O)[C@@H](Cc3ccc(C(F)(F)F)cc3)C(=O)N(C)CC(=O)N[C@@H](CCc3cc(F)c(C(F)(F)F)c(F)c3)C(=O)N2C1 [PP1033]	C (A compound having a KD ratio of 0.1 or more and less than 3 is denoted as C)	C (A compound having a KD ratio of 0.1 or more and less than 3 is denoted as C)
430	CCO[C@@H]1C[C@H]2C(=O)NC3(CCC3)C(=O)N(C)[C@@H](C3CCCC3)C(=O)N(C)[C@H](C(=O)N(C)C)CC(=O)N(C)[C@@H](CC)C(=O)N[C@@H]([C@@H](C)CC)C(=O)N(C)CC(=O)N(C)[C@H]3CC(C)=CCN(C3=O)[C@@H](Cc3ccc(C(F)(F)F)cc3)C(=O)N(C)CC(=O)N[C@@H](CCc3cc(F)c(C(F)(F)F)c(F)c3)C(=O)N2C1 [PP1034]	C (A compound having a KD ratio of 0.1 or more and less than 3 is denoted as C)	C (A compound having a KD ratio of 0.1 or more and less than 3 is denoted as C)
520	CCO[C@@H]1C[C@H]2C(=O)NC3(CCC3)C(=O)N(C)[C@@H](C3CCCC3)C(=O)N(C)[C@H](C(=O)N(C)C)CC(=O)N(C)[C@@H](CC)C(=O)N[C@@H]([C@@H](C)CC)C(=O)N3CC[C@H]3C(=O)N(C)[C@H]3CC(C)=CCN(C3=O)[C@@H](Cc3ccc(C(F)(F)F)cc3)C(=O)N(C)CC(=O)N[C@@H](CCc3cc(F)c(C(F)(F)F)c(F)c3)C(=O)N2C1 [PP1035]	C (A compound having a KD ratio of 0.1 or more and less than 3 is denoted as C)	C (A compound having a KD ratio of 0.1 or more and less than 3 is denoted as C)
750	CCO[C@@H]1C[C@H]2C(=O)NC3(CCCC3)C(=O)N(C)[C@@H](C3CCCC3)C(=O)N(C)[C@H](C(=O)N(C)C)CC(=O)N(C)[C@@H](CC)C(=O)N[C@@H]([C@@H](C)CC)C(=O)N(C)CC(=O)N(C)[C@H]3CC(C)=CCN(C3=O)[C@@H](Cc3ccc(C(F)(F)F)cc3)C(=O)N(C)CC(=O)N[C@@H](CCc3cc(F)c(C(F)(F)F)c(F)c3)C(=O)N2C1 [PP1036]	C (A compound having a KD ratio of 0.1 or more and less than 3 is denoted as C)	C (A compound having a KD ratio of 0.1 or more and less than 3 is denoted as C)
3000	CCO[C@@H]1C[C@H]2C(=O)NC3(CCCC3)C(=O)N(C)[C@@H](C3CCCC3)C(=O)N(C)[C@H](C(=O)N3CCOCC3)CC(=O)N(C)[C@@H](CC(C)C)C(=O)N[C@@H]([C@@H](C)CC)C(=O)N(C)CC(=O)N(C)[C@H]3CC(C)=CCN(C3=O)[C@@H](Cc3ccc(C(F)(F)F)cc3)C(=O)N(C)CC(=O)N[C@@H](CCc3cc(F)c(C(F)(F)F)c(F)c3)C(=O)N2C1 [PP1038]	C (A compound having a KD ratio of 0.1 or more and less than 3 is denoted as C)	C (A compound having a KD ratio of 0.1 or more and less than 3 is denoted as C)
1200	CCO[C@@H]1C[C@H]2C(=O)NC3(CCC3)C(=O)N(C)[C@@H](C3CCCC3)C(=O)N(C)[C@H](C(=O)N3CCOCC3)CC(=O)N(C)[C@@H](CC(C)C)C(=O)N[C@@H]([C@@H](C)CC)C(=O)N3CC[C@H]3C(=O)N(C)[C@H]3CC(C)=CCN(C3=O)[C@@H](Cc3ccc(C(F)(F)F)cc3)C(=O)N(C)CC(=O)N[C@@H](CCc3cc(F)c(C(F)(F)F)c(F)c3)C(=O)N2C1 [PP1040]	C (A compound having a KD ratio of 0.1 or more and less than 3 is denoted as C)	C (A compound having a KD ratio of 0.1 or more and less than 3 is denoted as C)
